Source: patent publication US11465984B2, “Compound having ERK kinase inhibitory activity and use thereof” (SHANGHAI HAIHE PHARMACEUTICAL CO., LTD., priority 2017, dated 2022)
Converted amounts (≈) assume the structure as drawn. Where two headings read alike, the source gives them in different places.

How the values were obtained:
[1] = Thermodynamic solubility assay; format: physicochemical; conditions: thermodynamic from solid, 37° C.
Experimental: The thermodynamic solubility of the compounds of the invention was determined in this Example
(3) Assay Protocol: Blank Vehicle with Different pH Values: • PH7.4: DPBS • PH6.8: 9900 μL HBSS+100 μL HEPS+5 μL 2N NaOH • […]: DPBS adjusted with 2N HCl to pH 2.0 Incubation: • About 3 mg of the compound was weighed, added with 500 μL of blank vehicle, and shaked at 37° C. for 24 h. Sample Treatment: • After incubation, the samples were centrifuged for 30 min, and the supernatant was transferred to a new EP tube and further centrifuged for 30 min • After centrifugation, the samples were diluted by 100 times with ACN/H2O (V/V, 1:1). • Linear concentration range from 12.5 nM to 1 mM was configured with ACN/H2O (V/V, 1:1). Biological Analysis: • All samples were mixed with water at the 1:1 ratio by volume, centrifuged at 4000 rpm for 5 min, and analyzed by LC-MS/MS. Analysis Methods:
Chromatography Conditions: • Analysis column: Acquity BEH C18 (1.7 μm; 2.1×50 mm, Waters) • Mobile phase A: 0.1% FA in H2O • Mobile phase B: 0.1% FA in CAN/MEOH (9:1, V/V) • Gradient: as shown in the table below.
MS/MS System • Multiple Reaction Monitoring (MRM) mode was used: […]

[2] = test system: human melanoma cell line A375; test: In vitro cell study: proliferation of A375 cells (SRB); format: cell-based; conditions: A-375, 72 h incubation, read-out: IC50 against A375 cell
Experimental: The inhibitory activity of Compound P9 of the invention and the representative compounds of WO2017/114510A1 on the proliferation of human melanoma cell line A375 (IC50 value) was determined in this Example.
• Cell: human melanoma cell line A375 (CRL-1619™, ATCC) • Detection reagent: sulforhodamine B SRB (S9012, Sigma) • Microplate: 96 well microplate (3599, Corning) • Microplate reader: full-wavelength microplate reader (SpectraMax 190, Molecular Devices) (2). Assay Protocol:
Cells in logarithmic growth phase were seeded at appropriate density (3500/well) into 96-well microplates in the volume of 90 μL per well. After incubation in a CO2 incubator at 37° C. overnight, 10 μL of the compound at various concentrations or saline for medium control was added in triplicate and incubated for 72 h, and a blank well was set. […] The optical density (OD value) at the wavelength of 560 nm was measured using a full-wavelength microplate reader SpectraMax 190. The inhibition rate of the drug on the growth of the tumor cells was calculated according to the following formula: […]
The IC50 values were obtained by regression with four-parameter method using the software attached to the microplate reader. […]

[3] = Pharmacokinetic study, single IV and PO administration to ICR mice; format: in vivo
Experimental: The pharmacokinetic parameters of Compound P9 of the invention and the representative compounds of WO2017/114510A1 in mice were determined in this Example.
(1) In Vivo Pharmacokinetics Protocol for Single Intravenous (IV) and Oral (PO) Administration to ICR Mice
The concentration during formulation of test substances was calculated on the basis of pure free base.
The test substance was accurately weighed, and added with the excipients (5% DMSO+5% Solutol+90% saline) in the specified amounts. After complete dissolution, the dosing solution for intravenous injection was obtained at the concentration of 0.2 mg/mL.
The test compound was accurately weighed, and added with the excipients (0.4% methylcellulose (viscosity: 400 cps)) in the specified amount. After sufficiently mixing, the dosing solution for oral administration was obtained at the concentration of 1 mg/mL.
Forty male SPF grade ICR mice were purchased from Shanghai Xipuer-Bikai Laboratory Animal Co., Ltd., and 30 normal healthy ICR mice of them passed the physical examination and were used in this study. Animal weight: 20.12-25.56 g.
Blood was collected through the orbit or through cardiac puncture after carbon dioxide (CO2) euthanasia. About 0.20 milliliter (mL) of blood was collected for each sample with heparin sodium as anticoagulant agent. The samples were placed on ice after collection. […]
The biological samples of the test substances were analyzed by LC-MS/MS. […]
The pharmacokinetic parameters were calculated from the blood concentration data of the drug, using WinNonlin 7.0 to provide the parameters such as AUC0-t, AUC0-∞, MRT0-∞, Cmax, Tmax, and T1/2, and the average and standard deviation thereof.
For those samples with concentrations below the lower limit of quantitation, when calculating the pharmacokinetic parameters, samples collected before Cmax should be calculated as zero, and samples collected at the points after Cmax should be calculated as being below the limit of qualitification (BLQ).

solubility at 24 h ([1]; HBSS/HEPES 10 mM/BSA 0.1% pH 6.8, pH 6.8, aqueous buffer, read-out: Maximum solubility in pH 6.8 HBSS/HEPES 10 mM/BSA 0.1%): 267 ± 3 µM (≈ 124 µg/mL)
solubility at 24 h ([1]; PBS (DPBS) pH 2.0, pH 2, aqueous buffer, read-out: Maximum solubility in pH 2.0 PBS): 2850 ± 62 µM (≈ 1320 µg/mL)
solubility at 24 h ([1]; PBS buffer, pH 7.4, aqueous buffer, read-out: Maximum solubility in pH 7.4 PBS): 544 ± 5.3 µM (≈ 252 µg/mL)
IC50 [2]: 363 nM
CLz [3]: CLz/(L/hr/kg): 0.36
F ([3]; po): F/(%, po): 60.55
nAUC0-t ([3]; po): nAUC0-t/(ng · h/ mL, po): 1696.3
SMILES: Cn1nccc1Nc1cc(-c2cc(F)c3c(c2)CCN3C(=O)Cc2cccnc2Cl)ccn1 [Example P9, 2-(2-chloropyridin-3-yl)-1-(7-fluoro-5-(2-((1-methyl-1H-pyrazol-5-yl)amino)pyridin-4-yl)indolin-1-yl)ethan-1-one]
